Measurements published in US20080221163A1, “Selective Estrogen Receptor Modulators” (priority 2005, published 2008).
Structures can show the parent of a compound that is named as a salt. Where two headings read alike, the source gives them in different places.

Tests used:
[1] = system: Ishikawa human endometrial tumor cells; assay: Ishikawa Cell Proliferation Assay (alkaline phosphatase readout; agonist and antagonist modes); format: cell-based; conditions: for stimulation compared with tamoxifen: compound alone
Protocol: Ishikawa Cell Proliferation Assay: This assay measures cell proliferation (using an alkaline phosphatase readout) in both an agonist mode in the presence of a compound of the present invention alone, and in an antagonist mode in which the ability of a compound of the present invention to block estradiol stimulation of growth is measured.
Ishikawa human endometrial tumor cells are maintained in MEM (minimum essential medium, with Earle's salts and L-Glutamine, Gibco BRL, Gaithersburg, Md.), supplemented with 10% fetal bovine serum (FBS) (V/V), (Gibco BRL). One day prior to assay, growth media is changed to assay medium, DMEM/F-12 (3:1) (Dulbecco's Modified Eagle Medium: Nutrient Mixture F-12, 3:1 Mixture, phenol red-free, Gibco BRL) supplemented with 5% dextran coated charcoal stripped fetal bovine serum (DCC-FBS) (Hyclone, Logen, Utah), L-Glutamine (2 mM), MEM sodium pyruvate (1 mM), HEPES (N-[2-hydroxyethyl]piperazine-N′-[2-ethanesulfonic acid] 2 mM) all from Gibco BRL). After an overnight incubation, Ishikawa cells are rinsed with Dulbecco's Phosphate Buffered Saline (1×) (D-PBS) without Ca^+2 and Mg^+2 (Gibco BRL), and trypsinized by a 3 minute incubation with 0.25% Trypsin/EDTA, phenol red-free (Gibco BRL). Cells are resuspended in assay medium and adjusted to 250,000 cells/mL. Approximately 25,000 cells in a 100 μl media are added to flat-bottom 96 wells microculture plates (Costar 3596) and incubated at 37° C. in a 5% CO2 humidified incubator for 24 hours. The next day, serial dilutions of compounds are prepared in assay medium (at 6 times the final concentration in the assay). The assay is run in dual mode, agonist and antagonist modes.
For the agonist mode, plates receive 25 μl/well of assay medium followed by 25 μl/well of a diluted compound of the present invention (at 6× the final concentrations). For the antagonist mode, plates receive 25 μl/well of 6 nM E2 (β-Estradiol, Sigma, St. Louis, Mo.) followed by 25 μl/well of a diluted compound of the present invention (at 6× the final concentrations). After an additional 48-hour incubation at 37° C. in a 5% CO2 humidified incubator, media is aspirated from wells and 100 μl fresh assay medium is added to each microculture. Serial dilutions of compounds are prepared and added to the cells as described above. After an additional 72 hour incubation at 37° C. in a 5% CO2 humidified incubator, the assay is quenched by removing media and rinsing plates twice in Dulbecco's Phosphate Buffered Saline (1×) (D-PBS) (Gibco BRL). The plates are dried for 5 minutes and frozen at −70° C. for at least 1 hour. The plates are then removed from the freezer and allowed to thaw at room temperature. To each well, 100 μl of 1-Step™ PNPP (Pierce Chemical Company, Rockford, Ill.) is added. After a 20-minute incubation, plates are read on a spectophotometer at 405 nm.
The data is fitted to a linear interpolation to derive EC50 (for agonist mode) or IC50 (for antagonist mode) values. For the antagonist mode, a % efficacy for each compound is calculated versus E2 (1 nM) alone. For the agonist mode, a % efficacy for each compound is calculated versus the response to tamoxifen.

[2] = system: estrogen-induced response; assay: 3-Day Rat Uterus Antagonist Assay; format: in vivo; conditions: immature female rats, oral, 3 days, with E2 0.1 mg/kg; for inhibition of the estrogen-induced response (uterine weight/body weight ratio): administered at 0.01, 0.1 and 1.0 mg/kg
Description: 3-Day Rat Uterus Antagonist Assay: This model for uterine antagonism utilizes immature (3 week old) female rats that are highly sensitive to estrogenic stimulation of the uterus given that their circulating estrogen levels are prepubertal. The uteri from immature rats are fully responsive to exogenous estrogen, yet are quiescent in the absence of exogenous estrogen. Administration of exogenous estrogen to immature rats produces a reliable elevation of uterine weight, which can be used to study uterine antagonist effects. The rats are treated with both estradiol and 4 different concentrations of a compound of the present invention for 3 days and then uterine wet weights are measured.
Nineteen to twenty-one day old (or 45-50 g) female rats are orally treated with E2 (0.1 mg/kg, a maximal stimulatory estrogenic stimulus for reliably increasing uterine weight) and 10, 1.0, 0.1 and 0.01 mg/kg test compound for 3 days, 6 rats per group. Test compounds are dissolved in 20% β-hydroxycyclodextrin and administered by oral gavage in a volume of 0.2 mL daily (15 min. prior to the ethynyl estradiol gavage). A vehicle control, E2 alone and E2+raloxifene are also done as controls. The animals are fasted overnight following the final dose. On the following morning, the animals are weighed, then euthanized (by carbon dioxide asphyxiation) and the uteri rapidly collected (via a mid-line ventral incision) and weighed.
Uterine weight/body weight ratios (UWR) are calculated for each animal. The percent inhibition of the estrogen-induced response is then calculated by the following formula: percent inhibition=100×(UWRestrogen−UWRtest compound/UWRestrogen−UWRcontrol). ED50 values are derived from a semi-log regression analysis of the linear aspect of the dose response curve. Both the UWR data and the percent inhibition data are statistically analyzed by one way analysis of variance (ANOVA) with post-hoc testing by Fisher's PLSD when indicated by a p≦0.05. Statistical analyses are performed using the Statview® 4.0 software package.

[3] = 10-Day Rat Hormone (Ovarian Stimulation) Screen; format: in vivo; conditions: mature F344 female rats, oral gavage 10 days, serum about 2 hours after 10th dose, RIA
Protocol: 10-Day Rat Hormone (Ovarian Stimulation) Screen: An initial, first screen for ovarian toxicity is conducted using a 10-day rat hormone study to measure estradiol and luteinizing hormone levels after compound administration. This screen is conducted by administering compound by oral gavage for 10 days to mature (9-10 week old) F344 female rats. Trunk blood is collected by rapid decapitation for evaluation of LH and estradiol levels approximately 2 hours after the 10th dose. Serum, obtained by centrifugation, is removed and stored frozen below −60° C. until assayed. Serum levels of LH and estradiol are measured using radioimmunoassay (RIA) methods.
Rat LH primary antibody and reference preparations (rat LH:RP-3) are obtained from Dr. A. F. Parlow, Director, Pituitary Hormones and Antisera Center, Harbor-UCLA Medical Center, Torrance, Calif. The LH assay upper limits of detection are 30 ng/mL and the lower limits of detection are 0.1 ng/mL for the 100 μl samples.
E2 Clinical Assays. DiaSorin s.r.l., Saluggia (Vercelli), Italy. The upper limit of detection is 1000 pg/mL and the lower limit of detection is 5 pg/mL.

**Q.** With CSc1ccc2c(c1)OC(c1ccc(OCCN3CCCCC3)cc1)c1c-2ccc2cc(O)ccc12.Cl (centres unmarked) [Example 1, 8-Methylsulfanyl-5-[4-(2-piperidin-1-yl-ethoxy)-phenyl-5H-6-oxa-chrysen-2-ol hydrochloride] as the compound, how does the Emax ([1]; Homo sapiens, Ishikawa, agonist mode, % efficacy versus the response to tamoxifen, read-out: relative % efficacy) read?
**A.** The Emax was 26%.

**Q.** And the IC50 ([1]; Homo sapiens, Ishikawa, antagonist mode, block of estradiol stimulation)?
**A.** Its IC50 is 45 nM.

**Q.** What about the Emax ([1]; Homo sapiens, Ishikawa, antagonist mode, versus E2 (1 nM) alone, read-out: % efficacy) of the same compound?
**A.** Its Emax is 92%.

**Q.** With CSc1ccc2c(c1)OC(c1ccc(OCCN3CCCCC3)cc1)c1c-2ccc2cc(O)ccc12.Cl (centres unmarked) [Example 1] as the compound, how does the “stimulation compared with tamoxifen” value ([1]; agonist mode) read?
**A.** The value was “less stimulatory than tamoxifen”.

**Q.** And the “% antagonism” value [2]?
**A.** Its value is 69%.

**Q.** And the ED50 [2]?
**A.** The ED50 was 0.22 mpk.

**Q.** And the “inhibition of the estrogen-induced response (uterine weight/body weight ratio)” value [2]?
**A.** Its value is “inhibit the estrogen-induced response”.

**Q.** With CNS(=O)(=O)c1ccc2c(c1)-c1ccc3cc(O)ccc3c1C(c1ccc(OCCN3CCCCC3)cc1)O2.Cl (centres unmarked) [Example 9, 2-Hydroxy-5-[4-(2-piperidin-1-yl-ethoxy)-phenyl]-5H-6-oxa-chrysen-9-sulfonic acid methylamide hydrochloride salt] as the compound, how does the “stimulation compared with tamoxifen” value ([1]; agonist mode) read?
**A.** The value was “less stimulatory than tamoxifen”.

**Q.** Which “stimulation compared with tamoxifen” value ([1]; agonist mode) does the source give for CNS(=O)(=O)c1ccc2c(c1)OC(c1ccc(OCCN3CCCCC3)cc1)c1c-2ccc2cc(O)ccc12.Cl (centres unmarked) [Example 5, 8-N-methyl sulfonamide-5-[4-(2-piperidin-1-yl-ethoxy)-phenyl]-5H-6-oxacbrysen-2-ol] here?
**A.** The value was “less stimulatory than tamoxifen”.

**Q.** Which “stimulation compared with tamoxifen” value ([1]; agonist mode) does the source give for CCS(=O)(=O)c1ccc2c(c1)OC(c1ccc(OCCN3CCCCC3)cc1)c1c-2ccc2cc(O)ccc12.Cl (centres unmarked) [Example 7, 8-Ethanesulfonyl-5-[4-(2-piperidin-1-yl-ethoxy)-phenyl]-5H-6-oxa-chrysen-2-ol hydrochloride salt] here?
**A.** Its value is “less stimulatory than tamoxifen”.

**Q.** With CS(=O)(=O)c1ccc2c(c1)-c1ccc3cc(O)ccc3c1C(c1ccc(OCCN3CCCCC3)cc1)O2.Cl (centres unmarked) [Example 10, 9-Methanesulfonyl-5-[4-(2-piperidin-1-yl-ethoxy)-phenyl]-5H-6-oxa-chrysen-2-ol hydrochloride salt] as the compound, how does the “stimulation compared with tamoxifen” value ([1]; agonist mode) read?
**A.** The value was “less stimulatory than tamoxifen”.

**Q.** Which “stimulation compared with tamoxifen” value ([1]; agonist mode) does the source give for CS(=O)(=O)c1ccc2c(c1)OC(c1ccc(OCCN3CCCCC3)cc1)c1c-2ccc2cc(O)ccc12 (racemic) [Example 3, 8-Methanesulfonyl-5-[4-(2-piperidin-1-yl-ethoxy)-phenyl]-5H-6-oxa-chrysen-2-ol, mono-Hydrochloride salt] here?
**A.** Its value is “less stimulatory than tamoxifen”.

**Q.** What about the “% antagonism” value [2] of the same compound?
**A.** Its value is 81%.

**Q.** What about the ED50 [2] of the same compound?
**A.** The ED50 was 0.17 mpk.

**Q.** What about the “inhibition of the estrogen-induced response (uterine weight/body weight ratio)” value [2] of the same compound?
**A.** The value was “inhibit the estrogen-induced response”.

**Q.** And the “circulating LH levels” value [3]?
**A.** The value was “did not significantly elevate”.

**Q.** What about the circulating estradiol levels [3] of the same compound?
**A.** The circulating estradiol levels was “did not significantly elevate”.
